Assay results from PubChem BioAssay AID200 (DTP/NCI, 2004).
Where “and” joins values, the source holds several entries; their conditions need not be identical. Equal entries are not always repeated. Inconclusive results and toxic doses are left out.

System: B6C3F1 mice, B16 melanoma ip, median survival T/C
Test: NCI In Vivo Anticancer Drug Screen. Data for tumor model B16 Melanoma (intraperitoneal) in B6C3F1 mice
Settings: endpoint: median survival time, higher = longer survival
Protocol: The antitumor activity of compounds was measured in mice bearing transplantable tumors. Survival or tumor size were measured and the results are expressed as the measurement made in the treated group (T) divided by the measurement made in the vehicle treated control group (C). The tumor model used in this assay is B16 Melanoma (intraperitoneal) in B6C3F1 mice

[1] = dose: 12.5 mg/kg/injection, schedule: Q01DX009 (ip), vehicle: saline with Tween-80
[2] = dose: 50.0 mg/kg/injection, schedule: Q01DX009 (ip), vehicle: saline with Tween-80
[3] = dose: 100.0 mg/kg/injection, schedule: Q01DX009 (ip), vehicle: saline with Tween-80
[4] = dose: 1.0 mg/kg/injection, schedule: Q01DX009 (ip), vehicle: Klucel (hydroxypropylcellulose) (HPC)
[5] = dose: 2.0 mg/kg/injection, schedule: Q01DX009 (ip), vehicle: Klucel (hydroxypropylcellulose) (HPC)
[6] = dose: 12.5 mg/kg/injection, schedule: Q01DX009 (ip), vehicle: saline
[7] = dose: 25.0 mg/kg/injection, schedule: Q01DX009 (ip), vehicle: saline
[8] = dose: 50.0 mg/kg/injection, schedule: Q01DX009 (ip), vehicle: saline
[9] = dose: 100.0 mg/kg/injection, schedule: Q01DX009 (ip), vehicle: saline
[10] = dose: 200.0 mg/kg/injection, schedule: Q01DX009 (ip), vehicle: saline
[11] = dose: 400.0 mg/kg/injection, schedule: Q01DX009 (ip), vehicle: saline
[12] = dose: 50.0 mg/kg/injection, schedule: Q01DX009 (ip), vehicle: Klucel (hydroxypropylcellulose) (HPC)
[13] = dose: 100.0 mg/kg/injection, schedule: Q01DX009 (ip), vehicle: Klucel (hydroxypropylcellulose) (HPC)
[14] = dose: 200.0 mg/kg/injection, schedule: Q01DX009 (ip), vehicle: Klucel (hydroxypropylcellulose) (HPC)
[15] = dose: 400.0 mg/kg/injection, schedule: Q01DX009 (ip), vehicle: Klucel (hydroxypropylcellulose) (HPC)
[16] = dose: 12.5 mg/kg/injection, schedule: Q01DX009 (ip), vehicle: Klucel (hydroxypropylcellulose) (HPC)
[17] = dose: 25.0 mg/kg/injection, schedule: Q01DX009 (ip), vehicle: Klucel (hydroxypropylcellulose) (HPC)
[18] = dose: 200.0 mg/kg/injection, schedule: Q01DX009 (ip), vehicle: saline with Tween-80
[19] = dose: 25.0 mg/kg/injection, schedule: Q01DX009 (ip), vehicle: saline with Tween-80

With COc1cc2cc(c1Cl)N(C)C(=O)CC(OC(=O)C(C)N(C)C(=O)C(C)C)C1(C)OC1C(C)C1CC(O)(NC(=O)O1)C(OC)/C=C/C=C(C)C2OC (stereo not given) the T/C (dose: 2.0 micrograms/kg/injection, schedule: Q01DX009 (ip), vehicle: Klucel (hydroxypropylcellulose) (HPC)) was 196 % of control, the T/C (dose: 4.0 micrograms/kg/injection, schedule: Q01DX009 (ip), vehicle: Klucel (hydroxypropylcellulose) (HPC)) was 157 % of control and 165 % of control and 213 % of control and the T/C (dose: 4.0 micrograms/kg/injection, schedule: Q01DX009 (ip), vehicle: distilled water + alcohol) was 103 % of control. For the same compound, the T/C (dose: 8.0 micrograms/kg/injection, schedule: Q01DX009 (ip), vehicle: Klucel (hydroxypropylcellulose) (HPC)) was 172 % of control and 185 % of control and 245 % of control, the T/C (dose: 8.0 micrograms/kg/injection, schedule: Q01DX009 (ip), vehicle: distilled water + alcohol) was 101 % of control and the T/C (dose: 16.0 micrograms/kg/injection, schedule: Q01DX009 (ip), vehicle: Klucel (hydroxypropylcellulose) (HPC)) was 172 % of control and 194 % of control and 232 % of control. The T/C (dose: 16.0 micrograms/kg/injection, schedule: Q01DX009 (ip), vehicle: distilled water + alcohol) was 114 % of control, the T/C (dose: 32.0 micrograms/kg/injection, schedule: Q01DX009 (ip), vehicle: Klucel (hydroxypropylcellulose) (HPC)) was 183 % of control and 207 % of control and the T/C (dose: 32.0 micrograms/kg/injection, schedule: Q01DX009 (ip), vehicle: distilled water + alcohol) was 119 % of control and 122 % of control. The T/C (dose: 64.0 micrograms/kg/injection, schedule: Q01DX009 (ip), vehicle: distilled water + alcohol) was 105 % of control and the T/C (dose: 128.0 micrograms/kg/injection, schedule: Q01DX009 (ip), vehicle: distilled water + alcohol) was 114 % of control.

With CNc1cccnc1/C=N/NC(N)=S the T/C [1] was 119 % of control, the T/C [2] was 159 % of control and the T/C [3] was 151 % of control.

In the case of C=C1C(=O)OC2CC(C)C3C4OC4C(O)C3(C)C(O)C12 (stereo not given), the T/C (dose: 0.4 mg/kg/injection, schedule: Q01DX009 (ip), vehicle: saline) is reported as 104 % of control, the T/C (dose: 0.8 mg/kg/injection, schedule: Q01DX009 (ip), vehicle: saline) is reported as 110 % of control and the T/C (dose: 1.56 mg/kg/injection, schedule: Q01DX009 (ip), vehicle: saline) is reported as 108 % of control. The T/C (dose: 3.13 mg/kg/injection, schedule: Q01DX009 (ip), vehicle: saline) was 124 % of control.

For CC(C)(O)[C@H]1[C@@H]2OC(=O)[C@H]1[C@]1(O)C[C@H]3OC34C(=O)O[C@H]2[C@@]41C (stereo not given in full) (tested in a mixture with another compound), the T/C (dose: 0.25 mg/kg/injection, schedule: Q01DX009 (ip), vehicle: Klucel (hydroxypropylcellulose) (HPC)) was 110 % of control, the T/C (dose: 0.5 mg/kg/injection, schedule: Q01DX009 (ip), vehicle: Klucel (hydroxypropylcellulose) (HPC)) was 99 % of control and the T/C [4] was 108 % of control. The T/C [5] was 111 % of control.

CC(C)C(N)C(=O)Nc1nncs1 (stereo not given) was tested, and the T/C [6] was 102 % of control, the T/C [7] was 104 % of control and the T/C [8] was 98 % of control. The T/C [9] was 113 % of control, the T/C [10] was 114 % of control and the T/C [11] was 117 % of control.

Oc1ccc(CCl)c2cccnc12 was tested, and the T/C (dose: 12.0 mg/kg/injection, schedule: Q01DX009 (ip), vehicle: saline) was 102 % of control and the T/C [6] was 100 % of control.

With C[C@]12CCC(=O)C=C1CC[C@@H]1[C@@H]2C(=O)C[C@@]2(C)[C@H]1CC[C@]2(O)C(=O)CO the T/C [12] was 106 % of control, the T/C [13] was 93 % of control and the T/C [14] was 108 % of control. The T/C [15] was 117 % of control.

[Cl][Pt+2][Cl].[NH-]c1cc2ccccc2cc1[NH-] was tested, and the T/C (dose: 20.0 mg/kg/injection, schedule: Q01DX009 (ip), vehicle: saline with Tween-80) was 89 % of control, the T/C (dose: 40.0 mg/kg/injection, schedule: Q01DX009 (ip), vehicle: saline with Tween-80) was 104 % of control and the T/C (dose: 80.0 mg/kg/injection, schedule: Q01DX009 (ip), vehicle: saline with Tween-80) was 98 % of control. The T/C (dose: 160.0 mg/kg/injection, schedule: Q01DX009 (ip), vehicle: saline with Tween-80) was 99 % of control and the T/C (dose: 320.0 mg/kg/injection, schedule: Q01DX009 (ip), vehicle: saline with Tween-80) was 111 % of control.

For CCCCC(NC(=O)C(C)N)C(=O)O (stereo not given), the T/C [12] was 102 % of control, the T/C [13] was 107 % of control and the T/C [14] was 96 % of control. The T/C [15] was 93 % of control.

For C=C1CCC2C(c3c(C)c(O)c4c(c31)C(=O)C(C)C4)C2(C)C (stereo not given), the T/C (dose: 3.13 mg/kg/injection, schedule: Q01DX009 (ip), vehicle: Klucel (hydroxypropylcellulose) (HPC)) was 102 % of control, the T/C (dose: 6.25 mg/kg/injection, schedule: Q01DX009 (ip), vehicle: Klucel (hydroxypropylcellulose) (HPC)) was 89 % of control and the T/C [16] was 95 % of control. For the same compound, the T/C [17] was 89 % of control.

CCC(C)c1cnc(CC(C)C)c(=O)n1O (stereo not given) was tested, and the T/C [2] was 98 % of control and the T/C [3] was 87 % of control.

O=C(NC(CSSCC(NC(=O)c1ccccc1)C(=O)O)C(=O)O)c1ccccc1 (stereo not given) was tested, and the T/C [2] was 109 % of control, the T/C [3] was 108 % of control and the T/C [18] was 106 % of control. The T/C (dose: 400.0 mg/kg/injection, schedule: Q01DX009 (ip), vehicle: saline with Tween-80) was 100 % of control.

COc1cccc2c1C(=O)c1c(O)c3c(c(O)c1C2=O)C[C@@](O)(C(C)=O)C[C@@H]3OC1CC(NC(=O)C(N)CC(C)C)C(O)C(C)O1 (stereo not given in full) was tested, and the T/C (dose: 6.25 mg/kg/injection, schedule: Q01DX001 (ip), vehicle: saline) was 179 % of control and the T/C (dose: 12.5 mg/kg/injection, schedule: Q01DX001 (ip), vehicle: saline) was 204 % of control.

For Cc1cc(=O)n2c3c(c4c(cc13)c(CN(C)C)cc(=O)n4C)OC2, the T/C (dose: 6.25 mg/kg/injection, schedule: Q01DX009 (ip), vehicle: saline with Tween-80) was 105 % of control, the T/C [1] was 98 % of control and the T/C [19] was 100 % of control. For the same compound, the T/C [2] was 111 % of control.

With CC(C)([NH-])CO.CC(C)([NH-])CO.[Cl][Cd][Cl] the T/C (dose: 0.31 mg/kg/injection, schedule: Q01DX009 (ip), vehicle: saline with Tween-80) was 90 % of control, the T/C (dose: 0.63 mg/kg/injection, schedule: Q01DX009 (ip), vehicle: saline with Tween-80) was 89 % of control and the T/C (dose: 1.25 mg/kg/injection, schedule: Q01DX009 (ip), vehicle: saline with Tween-80) was 87 % of control.

For CC1CCC(n2cnc3c(Cl)ncnc32)O1 (stereo not given), the T/C [16] was 97 % of control and 104 % of control, the T/C [17] was 92 % of control and 104 % of control and the T/C [12] was 92 % of control and 98 % of control. The T/C [13] was 97 % of control and 104 % of control and the T/C [14] was 92 % of control and 93 % of control.

For [Cl][Pt+2][Cl].[NH-]C1CCC1.[NH2-], the T/C (dose: 0.75 mg/kg/injection, schedule: Q01DX009 (ip), vehicle: saline) was 151 % of control and the T/C (dose: 3.0 mg/kg/injection, schedule: Q01DX009 (ip), vehicle: saline) was 205 % of control.

For c1ccc(CN2CCOC2)cc1, the T/C [6] was 100 % of control and 101 % of control, the T/C [7] was 101 % of control and 108 % of control and the T/C [8] was 98 % of control and 102 % of control. The T/C [9] was 112 % of control and 102 % of control and the T/C [10] was 113 % of control.

For COc1ccc2c(c1O)-c1cccc3c1[C@@H](C2)N(CCCl)CC3, the T/C [4] was 91 % of control and 100 % of control, the T/C [5] was 100 % of control and the T/C (dose: 4.0 mg/kg/injection, schedule: Q01DX009 (ip), vehicle: Klucel (hydroxypropylcellulose) (HPC)) was 97 % of control and 106 % of control. For the same compound, the T/C (dose: 8.0 mg/kg/injection, schedule: Q01DX009 (ip), vehicle: Klucel (hydroxypropylcellulose) (HPC)) was 98 % of control and 102 % of control.

CCCC(NC(=O)OCc1ccccc1)C(=O)NC(Cc1c[nH]c2ccccc12)C(=O)O (stereo not given) was tested, and the T/C [13] was 107 % of control, the T/C [14] was 99 % of control and the T/C [15] was 100 % of control.

CCc1cccc(CC)c1-n1c(C)ccc1-c1ccccc1 was tested, and the T/C [2] was 100 % of control and the T/C [3] was 107 % of control.

Cn1c(=O)c(-c2ccccc2)[n+]([O-])c2ccccc21 was tested, and the T/C [19] was 98 % of control, the T/C [2] was 122 % of control and the T/C [3] was 101 % of control. The T/C [18] was 94 % of control.

For CC(NC(=O)C1CCCN1C(=O)CN)C(=O)O (stereo not given), the T/C [9] was 105 % of control, the T/C [10] was 92 % of control and the T/C [11] was 96 % of control.
